According to article PMC10610289, “Novel Baicalein-Derived Inhibitors of Plasmodium falciparum” (Pathogens, 2023):
Read-outs that look alike come from different tables or passages of the source.

Legend:
[1] = test system: Plasmodium falciparum 3D7 (chloroquine-sensitive); test: Antimalarial assay (IC50 determination), asexual blood stage, SYBR green; format: cell-based; conditions: for IC50: P. falciparum 3D7, 72 h exposure, read-out: IC50; for antimalarial activity (in words): P. falciparum 3D7, highest tested concentration 25 µM
Experimental: (§1) Parasite lines used in the study were P. falciparum 3D7 (Pf3D7 Chloroquine-sensitive) and Plasmodium falciparum K1 (PfK1 Chloroquine-resistant) sourced from the Malaria Research and Reference Reagent Resource Center (MR4), ATCC, Manassas, VA, USA. FNDR-10132 was tested against a cross-resistance panel at Swiss TPH, Allschwil, Switzerland.
As per the modified protocol stated by Trager and Jensen, 1976, Plasmodium falciparum parasite lines (Pf3D7 and PfK1) were cultured. Plasmodium strains were maintained in RPMI-1640 medium at 3–5% hematocrit supplemented with 0.2% w/v glucose, 0.5% w/v AlbuMaxII, 0.2% w/v NaHCO3, and 30 μg/mL gentamycin, and, additionally, 15 μM hypoxanthine was added and incubated at 37 °C with 5% O2, 5% CO2, and 90% N2. After 24 h, the medium was changed. After attaining high parasitemia (6–8% mature stage parasite), the culture was sub-passaged with fresh human RBCs.
All tested compounds were dissolved in a DMSO solvent and a prepared stock solution of 10 mM. The reference drug, Chloroquine diphosphate, was dissolved in CRPMI. Working solutions were made from stock solution after diluting in a CRPMI medium during the experiment. The maximum concentration of DMSO used in this study was <1%. It had no parasiticidal effect.
The P. falciparum (0.8–1% parasitemia and 1% hematocrit) synchronous culture was exposed for 72 h (at 37 °C, 5% O2, 5% CO2, and 90% N2) to the serially diluted compound in 96-well plates. A total of 100 µL of RBCs lytic buffer (5 mM EDTA, 20 mM Tris pH 7.5, 0.08% Triton X-100, and 0.008% Saponin) containing the SYBR green 1-X final concentration was distributed to each well and incubated for one hour at room temp in the dark. The plates were read under a fluorescence reader at an excitation of 485 ± 20 nm and emission of 535 ± 25 nm. The IC50 values were calculated based on the DNA content of the parasite relative to its control. An inhibitory concentration of 50% (IC50) was determined using the MS-EXEL template.

Dd2 (wt) = test: Cross-resistance panel, Dd2 wt; format: cell-based, Plasmodium falciparum; conditions: strain Dd2 wt
Experimental: as §1

[2] = test system: Dd2 GNF156 (Pfcarl Ile1139Lys); test: Cross-resistance panel, Dd2 GNF156; format: cell-based, Plasmodium falciparum
Experimental: as §1

[3] = Microsomal stability assay; format: in vitro ADME, mouse; conditions: at 60 min, 1 µM, ß-NADPH, 37 °C
Experimental: Dipotassium hydrogen phosphate, Potassium dihydrogen phosphate, and formic acid were obtained from Merck, Rahway, NJ, USA. Methanol–acetonitrile was procured from Biosolve Chimie, Dieuze, France. Mouse liver microsomes, 20 mg/mL, were received from a third-party vendor in India. Imipramine HCl (catalog no. I0971) and Carbamazepine (catalog no. O0363) were procured from TCI, Gurugram, India. ß-NADPH (product code-99197) was procured from Sisco Research Laboratories, Mumbai, India.
The in vitro metabolic stability was determined in mouse liver microsomes. To prepare a mouse liver microsomes (MLM) homogenate, 100 µL of microsomes was resuspended in 100 mM phosphate buffer (0.607 g K2HPO4 and 0.212 g KH2PO4 dissolved in 50 mL of de-ionized water), achieving a working concentration of 0.625 mg/mL. Positive control (Imipramine) and test compounds (FNDR-10132, 10136, 10139, and 10999) were spiked individually into the MLM homogenate at a final concentration of 1 µm. To pre-incubate, they were placed in a water bath at 37 °C for 5 min. At least 30 µL was collected in triplicates (0 min samples), and the reaction was quenched using 90 µL of acetonitrile, which contained 500 ng/mL of Carbamazepine as an internal standard. Nicotinamide Adenine Dinucleotide Phosphate (NADPH) in phosphate buffer was added to the remaining MLM at a 1 mM final concentration and further incubated at 37 °C. At the indicated time intervals, 30 µL aliquots were sampled in triplicates, and the reaction was quenched with acetonitrile containing Carbamazepine as the internal standard. The samples were centrifugated for 10 min at 13,000 rpm, and the supernatant was separated for further analysis.
The analytical method for microsomal stability and protein binding assay is as follows: Chromatographic elution was achieved following isocratic flow on an X-Terra MS C18 50 × 4.6 mm, 2.5 µm, Waters, USA, maintained at 40 °C. The mobile phase contained aqueous 0.1% formic acid in water in solvent A and acetonitrile acidified with 0.1% formic acid in solvent B delivered at 0.300 mL/min. The flow was 15% from solvent A and 85% from solvent B for 4.5 min. A total of 7 μL of the sample was injected for the assay. […] Detection was performed through multiple reaction monitoring (MRM). The ion transitions are as follows: Imipramine, FNDR-10132, FNDR-10136, FNDR-10139, FNDR-10999, and IS at m/z 281.1→86.0, 355.2→115.1, 354.0→298.0, 350.0→186.1, 349→305.2, and m/z 237.0→194.0, respectively. An optimized cone voltage and collision energy were used to ionize the compounds. The MS parameters follow as follows: cone gas flow 50 (L/h); ion source temperature 150 °C; desolvation gas flow 900 (L/h); desolvation temperature 400 °C; and collision gas flow 0.10 (mL/min).

[4] = test system: Dd2 ELQ300 (PfcytB Ile22Leu); test: Cross-resistance panel, Dd2 ELQ300; format: cell-based, Plasmodium falciparum
Experimental: as §1

[5] = test system: Dd2 DDD107498 (PfeEF2 Y186N); test: Cross-resistance panel, Dd2 DDD107498; format: cell-based, Plasmodium falciparum
Experimental: as §1

Dd2 DSM265 (Pfdhodh) = test: Cross-resistance panel, Dd2 DSM265; format: cell-based, Plasmodium falciparum
Experimental: as §1

[6] = test system: Dd2 390048 (Pfpi4k S743T); test: Cross-resistance panel, Dd2 390048; format: cell-based, Plasmodium falciparum
Experimental: as §1

[7] = Plasmodium falciparum, 3D7, 72 h

O=c1cc(-c2ccccc2)oc2cc(O)c(O)c(O)c12 [baicalein]
IC50 [1, 7]: 32 µM

O=C(O)c1ccc2c(=O)cc(-c3ccc(C4CCCCC4)cc3)oc2c1 [FNDR-11012]
antimalarial activity (in words) [1]: inactive | IC50 [1, 7]: > 25 µM

CCCCOc1ccc(-c2cc(=O)c3cc(C(=O)O)ccc3o2)cc1 [FNDR-11000]
antimalarial activity (in words) [1]: none of the compounds were active | IC50 [1, 7]: > 25 µM

COc1cccc(CCC(=O)NCc2cc(=O)c3c(O)c(O)c(O)cc3o2)c1 [FNDR-10146]
IC50 [1, 7]: 2.93 µM

O=c1cc(-c2ccc(-c3ccccc3)cc2)oc2cc(O)c(O)c(O)c12 [FNDR-10131]
IC50 [1, 7]: 0.22 µM

O=C(CCCCCc1ccccc1)NCc1cc(=O)c2c(O)c(O)c(O)cc2o1 [FNDR-10149]
IC50 [1, 7]: 2.74 µM

O=C(O)c1ccc2oc(-c3ccccc3)cc(=O)c2c1 [FNDR-10130]
antimalarial activity (in words) [1]: no activity | IC50 [1, 7]: > 25 µM

O=C(NCc1cc(=O)c2c(O)c(O)c(O)cc2o1)c1ccc2ccc(Br)cc2c1 [FNDR-10150]
IC50 [1, 7]: 1.12 µM

CC1(C)c2nc(-c3ccc(F)cc3)c(Nc3ccc(F)cc3)n2CCN1C(=O)CN [GNF156, reference compound]
IC50 (Dd2 (wt); Plasmodium falciparum): 0.00912 µM | Fold shift IC50 rel. Dd2 (Dd2 (wt)): 1.0 | IC50 ([2]; Plasmodium falciparum, DD2): 2.16 µM | Fold shift IC50 rel. Dd2 ([2]; strain Dd2 GNF156): 237

O=C(O)c1ccc2oc(-c3ccc(N4CCOCC4)cc3)cc(=O)c2c1 [FNDR-10138]
IC50 [1, 7]: 9.65 µM

CCCCOc1ccc(C(=O)NCc2cc(=O)c3c(O)c(O)c(O)cc3o2)cc1 [FNDR-10148]
IC50 [1]: 0.92 µM | IC50 [1, 7]: 0.9 µM

CCCCOc1ccc(-c2cc(=O)c3ccc(C(=O)O)cc3o2)cc1 [FNDR-11013]
antimalarial activity (in words) [1]: inactive | IC50 [1, 7]: > 25 µM

O=c1cc(-c2ccc(N3CCCCC3)cc2)oc2cc(O)c(O)c(O)c12 [FNDR-10136]
IC50 [1, 7]: 0.1 µM | Microsomal Stability (Mouse) [3]: ~19.05 ± 1.26%

COc1cc2[nH]c(C)c(-c3ccc(Oc4ccc(OC(F)(F)F)cc4)cc3)c(=O)c2cc1Cl [ELQ300, reference compound]
Fold shift IC50 rel. Dd2 (Dd2 (wt)): 1.0 | IC50 (Dd2 (wt)): 0.00614 µM | Fold shift IC50 rel. Dd2 ([4]; strain Dd2 ELQ300): 9.7 | IC50 ([4]; strain Dd2 ELQ300, PfcytB Ile22Leu, read-out: IC50): 0.0597 µM

CCCCCCc1ccc(-c2cc(=O)c3cc(C(=O)O)ccc3o2)cc1 [FNDR-11009]
IC50 [1, 7]: 10.4 µM

O=C(O)c1ccc2oc(-c3ccc(-c4ccccc4)cc3)cc(=O)c2c1 [FNDR-10137]
IC50 [1, 7]: 13.2 µM

O=C(CCCc1ccccc1)NCc1cc(=O)c2c(O)c(O)c(O)cc2o1 [FNDR-10143]
IC50 [1, 7]: 2.48 µM

O=C(NCCN1CCCC1)c1cc(-c2ccc(CN3CCOCC3)cc2)nc2ccc(F)cc12 [DDD107498, reference compound]
IC50 (Dd2 (wt); Plasmodium falciparum): 0.000257 µM | Fold shift IC50 rel. Dd2 (Dd2 (wt)): 1.0 | IC50 ([5]; Plasmodium falciparum, DD2): 1.86 µM | Fold shift IC50 rel. Dd2 ([5]; strain Dd2 DDD107498): 7247

O=C(O)c1ccc2oc(-c3ccc(C4CCCCC4)cc3)cc(=O)c2c1 [FNDR-10999]
IC50 [1]: 10.1 µM | IC50 [1, 7]: ~10 µM | Microsomal Stability (Mouse) [3]: ~32.19 ± 0.29%

CS(=O)(=O)CCCOc1ccc(-c2cc(=O)c3cc(C(=O)O)ccc3o2)cc1 [FNDR-11096]
antimalarial activity (in words) [1]: none of the compounds were active | IC50 [1, 7]: > 25 µM

CCN(CC)c1ccc(-c2cc(=O)c3ccc(C(=O)O)cc3o2)cc1 [FNDR-11014]
antimalarial activity (in words) [1]: inactive | IC50 [1, 7]: > 25 µM

CCCCCCCCCCCc1cc(=O)c2c(O)c(O)c(O)cc2o1 [FNDR-10142]
IC50 [1, 7]: 0.4 µM

Cc1cc(Nc2ccc(S(F)(F)(F)(F)F)cc2)n2nc(C(C)(F)F)nc2n1 [DSM265, reference compound]
IC50 (Dd2 DSM265 (Pfdhodh); Plasmodium falciparum): 0.15 µM | Fold shift IC50 rel. Dd2 (Dd2 DSM265 (Pfdhodh); strain Dd2 DSM265): 24 | IC50 (Dd2 (wt); Plasmodium falciparum): 0.00623 µM | Fold shift IC50 rel. Dd2 (Dd2 (wt)): 1.0

CCN(CC)c1ccc(-c2cc(=O)c3cc(C(=O)O)ccc3o2)cc1 [FNDR-11001]
IC50 [1]: 10.2 µM | IC50 [1, 7]: ~10 µM

CS(=O)(=O)c1ccc(-c2cnc(N)c(-c3ccc(C(F)(F)F)nc3)c2)cc1 [MMV390048, reference compound]
IC50 (Dd2 (wt); Plasmodium falciparum): 0.0185 µM | Fold shift IC50 rel. Dd2 (Dd2 (wt)): 1.0 | IC50 ([6]; Plasmodium falciparum, DD2): 0.0908 µM | Fold shift IC50 rel. Dd2 ([6]; strain Dd2 390048): 4.9

O=C(O)c1ccc2c(=O)cc(-c3ccc(N4CCCCC4)cc3)oc2c1 [FNDR-11003]
antimalarial activity (in words) [1]: inactive | IC50 [1, 7]: > 25 µM

O=c1cc(-c2ccc(N3CCOCC3)cc2)oc2cc(O)c(O)c(O)c12 [FNDR-10133]
IC50 [1, 7]: 1.29 µM

O=C(O)c1ccc2oc(-c3ccc(N4CCCCC4)cc3)cc(=O)c2c1 [FNDR-10139]
IC50 [1, 7]: 4.06 µM | Microsomal Stability (Mouse) [3]: ~29.92 ± 5.46%
